From patent US20240174690A1, “ANNULATED 2-AMINO-3-CYANO THIOPHENES AND DERIVATIVES FOR THE TREATMENT OF CANCER” (BOEHRINGER INGELHEIM INTERNATIONAL GMBH, priority 2021, published 2024)
In brackets after ≈: the same amount, converted by molar mass. Where two headings read alike, the source gives them in different places.

Legend:
[1] = Metabolic (microsomal) stability assay, human liver microsomes (HLM); type: in vitro ADME; conditions: predicted clearance as percent of liver blood flow, 1 μM
Protocol: The metabolic degradation of the test compound is assayed at 37° C. with pooled liver microsomes (mouse (MLM), rat (RLM) or human (HLM)). The final incubation volume of 48 μL pertime point contains TRIS buffer (pH 7.5; 0.1 M), magnesium chloride (6.5 mM), microsomal protein (0.5 mg/mL for mouse/rat, 1 mg/mL for human specimens) and the test compound at a final concentration of 1 μM. Following a short preincubation period at 37° C., the reactions are initiated by addition of 12 μL beta-nicotinamide adenine dinucleotide phosphate, reduced form (NADPH, 10 mM) and terminated by transferring an aliquot into solvent after different time points (0, 5, 15, 30, 60 min). Additionally, the NADPH-independent degradation is monitored in incubations without NADPH, terminated at the last time point by addition of acetonitrile. The quenched incubations are pelleted by centrifugation (4,000 rpm, 15 min). An aliquot of the supernatant is assayed by LC-MS/MS to quantify the concentration of parent compound in the individual samples.
In vitro intrinsic clearance (CLint, in vitro) is calculated from the time course of the disappearance of the test drug during the microsomal incubation. Each plot is fitted to the first-order elimination rate constant as C(t)═C0*exp(−ke*t), where C(t) and C0 are the concentration of unchanged test drug at incubation time t and that at preincubation and ke is the disappearance rate constant of the unchanged drug. Subsequently, CLint in vitro (μL min^−1·amount protein) values are converted to predicted CLint,in vivo (mL min^−1 kg^−1) from incubation parameters according to the equation CLint, in vivo=CLint, in vitro×(incubation volume (ml)/amount protein (mg))×(amount protein (mg)/g liver tissue)×(liver weight/body wt.).
For better across species comparison the predicted clearance is expressed as percent of the liver blood flow [% QH] (mL min^−1·kg^−1) in the individual species. In general, high stability (corresponding to low % QH) of the compounds across species is desired.

KRAS (G12D)::SOS1 = KRAS (G12D)::SOS1 (Homo sapiens (Human), UniProt P01116, G12D); assay: KRAS::SOS1 AlphaScreen binding assay, KRAS G12D
KRAS (G12D)::SOS1, sequence (P01116 other isoform, or with tags, fused parts or gaps G12D): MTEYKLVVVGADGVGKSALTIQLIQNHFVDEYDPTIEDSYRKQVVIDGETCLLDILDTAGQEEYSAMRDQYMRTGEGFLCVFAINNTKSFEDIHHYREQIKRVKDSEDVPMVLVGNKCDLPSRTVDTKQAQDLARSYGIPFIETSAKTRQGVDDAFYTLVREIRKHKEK
Excerpt: (§1) This assay can be used to examine the potency with which compounds according to the invention binding to (mutated) KRAS inhibit the protein-protein interaction between SOS1 and (mutated) KRAS e.g., KRAS WT, KRAS G12C, KRAS G12D, KRAS G12V, KRAS G13D. […] Low IC50 values in this assay setting are indicative of strong inhibition of protein-protein interaction between SOS1 and KRAS:
(§2) These assays measure the inhibitory effect of compounds on KRAS mutant protein-protein interactions using the Alpha Screen technology by Perkin Elmer.
(§3) The following (mutant) enzyme forms of KRAS and interacting proteins are used in these assays at the given concentrations: • KRAS (G12D) 1-169, N-terminal 6His-tag, C-terminal avi-tag (Xtal BioStructures, Inc.); final assay concentration 10 nM and SOS1 564-1049, N-terminal 229 GST-tag, TEV cleavage site (Viva Biotech Ltd); final assay concentration 5 nM; • KRAS (G12C) 1-169, N-terminal 6His-tag for purification, cleaved off, C-terminal avi-tag, biotinylated, mutations: C51S, C80L, C118S (in house); final assay concentration 7.5 nM and SOS1 564-1049, N-terminal 229 GST-tag, TEV cleavage site (Viva Biotech Ltd); final assay concentration 5 nM; • KRAS (G12V) 1-169, N-terminal 6His-tag for purification, cleaved off, C-terminal avi-tag, biotinylated, TEV cleavage site, mutation: C118S, GDP loaded (in house); final assay concentration 10 nM and SOS1 564-1049, N-terminal 229 GST-tag, TEV cleavage site (Viva Biotech Ltd); final assay concentration 10 nM; • KRAS (G13D) 1-169, N-terminal 6His-tag for purification, cleaved off, C-terminal avi-tag, biotinylated, TEV cleavage site, mutation: C118S, GDP loaded (in house); final assay concentration 10 nM and SOS1 564-1049, N-terminal 229 GST-tag, TEV cleavage site (Viva Biotech Ltd); final assay concentration 10 nM; • KRAS (WT) 1-169, N-terminal 6His-tag for purification, cleaved off, C-terminal avi-tag, biotinylated, TEV cleavage site, mutation: C118S, GDP loaded (in house); final assay concentration 10 nM and SOS1 564-1049, N-terminal 229 GST-tag, TEV cleavage site (Viva Biotech Ltd); final assay concentration 10 nM.
(§4) Test compounds dissolved in DMSO are dispensed onto assay plates (Proxiplate 384 PLUS, white, PerkinElmer; 6008289) using an Access Labcyte Workstation with the Labcyte Echo 55×. For the chosen highest assay concentration of 100 μM, 150 nL of compound solution are transferred from a 10 mM DMSO compound stock solution. A series of eleven fivefold dilutions per compound are transferred to the assay plate, compound dilutions are tested in duplicates. DMSO are added as backfill to a total volume of 150 nL.
(§5) The assays run on a fully automated robotic system in a darkened room below 100 Lux. To 150 nl of compound dilution 10 μl of a mix including KRAS mutant protein, SOS1 (final assay concentrations see above) and GDP nucleotide (Sigma G7127; final assay concentration 10 μM) in assay buffer (1×PBS, 0.1% BSA, 0.05% Tween 20) are added into columns 1-24.
(§6) After 30 minutes incubation time 5 μl of Alpha Screen bead mix in assay buffer are added into columns 1-23. Bead mix consists of AlphaLISA Glutathione Acceptor Beads (PerkinElmer, Cat No AL109) and AlphaScreen Streptavidin Donor Beads (PerkinElmer Cat No 6760002) in assay buffer at a final assay concentration of 10 μg/ml each.
(§7) Plates are kept at room temperature in a darkened incubator. After an additional 60 minutes incubation time the signal is measured in a PerkinElmer Envision HTS Multilabel Reader using the AlphaScreen specs from PerkinElmer.
(§8) Each plate contains up to 16 wells of a negative control depending on the dilution procedure (platewise or serial) (DMSO instead of test compound; with KRAS mutant::SOS1 GDP mix and bead mix; column 23) and 16 wells of a positive control (DMSO instead of test compound; with KRAS mutant::SOS1 GDP mix w/o bead mix; column 24).
(§9) As internal control known inhibitors of KRAS mutant::SOS1 interaction can be measured on each compound plate. […]

KRAS (G12C)::SOS1 = KRAS (G12C)::SOS1 (Homo sapiens (Human), UniProt P01116, C118S/C51S/C80L/G12C); assay: KRAS::SOS1 AlphaScreen binding assay, KRAS G12C
KRAS (G12C)::SOS1, sequence (P01116 other isoform, or with tags, fused parts or gaps G12C/C51S/C80L/C118S): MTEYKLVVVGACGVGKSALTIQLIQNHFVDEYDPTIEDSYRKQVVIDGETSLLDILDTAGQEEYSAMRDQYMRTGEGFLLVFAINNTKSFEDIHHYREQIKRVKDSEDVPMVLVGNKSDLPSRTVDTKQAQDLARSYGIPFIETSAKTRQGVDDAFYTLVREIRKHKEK
Excerpt: as §1, §2, §3, §4, §5, §6, §7, §8, §9

[2] = test system: KRAS G12C-dependent Ba/F3 cells; assay: Ba/F3 proliferation assay, KRAS G12C; type: cell-based; conditions: Mus musculus, BaF3, 72 h, AlamarBlue
Protocol: (§10) Plasmids containing KRASG12 mutants (i.e. […], G12C, G12V) are obtained from GeneScript. To generate KRASG12-dependent Ba/F3 models, Ba/F3 cells are transduced with retroviruses containing vectors that harbor KRASG12 isoforms. Platinum-E cells (Cell Biolabs) are used for retrovirus packaging. Retrovirus is added to Ba/F3 cells. To ensure infection, 4 μg/mL polybrene is added and cells are spinfected. […] Cells with an infection efficiency of 10% to 20% are further cultivated and puromycin selection with 1 μg/mL is initiated. As a control, parental Ba/F3 cells are used to show selection status. Selection is considered successful when parental Ba/F3 cells cultures died. To evaluate the transforming potential of KRASG12 mutations, the growth medium is no longer supplemented with IL-3. Ba/F3 cells harboring the empty vector are used as a control. Approximately ten days before conducting the experiments, puromycin is left out.
(§11) Compounds are added using an Access Labcyte Workstation with a Labcyte Echo 550 or 555 accoustic dispenser. All treatments are performed in technical duplicates. […] AlamarBlue™ (ThermoFisher), a viability stain, is added and fluorescence measured in the PerkinElmer Envision HTS Multilabel Reader. The raw data are imported into and analyzed with the Boehringer Ingelheim proprietary software MegaLab (curve fitting based on the program PRISM, GraphPad Inc.).

[3] = Solubility measurement (DMSO solution method), McIlvaine buffer pH 4.5 or 6.8; type: physicochemical; conditions: aqueous buffer, kinetic from dmso stock, DMSO stock diluted to 250 μM, 24 h shaking at ambient temperature
Protocol: The DMSO solution is diluted with an aqueous medium (Mcllvaine buffer with pH=4.5 or 6.8) to a final concentration of 250 μM. After 24 h of shaking at ambient temperature a potentially formed precipitate is removed by filtration. The concentration of the test compound in the filtrate is determined by LC-UV methods by calibrating the signal to the signal of a reference solution with complete dissolution of the test compound in acetonitrile/water (1:1) with known concentration.

[4] = test system: KRAS G12V-dependent Ba/F3 cells; assay: Ba/F3 proliferation assay, KRAS G12V; type: cell-based; conditions: Mus musculus, BaF3, 72 h, AlamarBlue;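 note: proliferation IC50 in KRAS G12V-dependent Ba/F3 cells read by AlamarBlue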
Protocol: as §10, §11

[5] = Plasma protein binding assay (PPB), equilibrium dialysis, 10% FCS in PBS; type: in vitro ADME; conditions: bovine, read-out: PPB 10% FCS (% fu)
Protocol: Binding of test compounds to plasma was determined using equilibrium dialysis (ED) and quantitative mass spectrometry interfaced with liquid chromatography (LC-MS). In brief, ED was performed with dialysis devices consisting of two chambers separated by a semipermeable membrane with a molecular weight cut-off of 5-10 kg/mol. One chamber was filled with 10% FCS in PBS containing 1-10 μmol/L test compound and the other chamber was filled with phosphate-buffer saline (PBS) with or without dextran. The dialysis chamber was incubated for 3-5 hours at 37° C. After incubation, protein was precipitated from aliquots of each chamber and the concentration of test compound in the supernatant of the plasma-containing compartment (Cserum) and of the buffer-containing compartment (Cbuffer) was determined by LC-MS. The fraction of unbound test compound (not bound to plasma) (fu) was calculated according to the following equation: […]

NCI-H358 cells = assay: NCI-H358 CTG proliferation assay (120 h) (NSCLC, G12C); type: cell-based, human; conditions: Homo sapiens, assay 2, CTG, read-out: H358 (assay 2) IC50
Protocol: NCI-H358 CTG Proliferation Assay (120 h) (NSCLC, G12C)
NCI-H358 cells (ATCC No. CRL-5807) are dispensed into white bottom opaque 96 well plates (Perkin Elmer cat no. 5680) at a density of 2000 cells per well in 100 μL RPMI-1640 ATCC-Formulation (Gibco #A10491)+10% FCS (fetal calf serum) (assay 1) or into black 384-well plates, flat and clear bottom (Greiner, PNr. 781091) at a density of 200 cells per well in 60 μl RPMI-1640 ATCC-Formulation (Gibco #A10491)+10% FCS (fetal calf serum) (assay 2). […] Compounds (10 mM stock in DMSO) are added at logarithmic dose series using the HP Digital Dispenser D300 (Tecan) (assay 1) or the ECHO acoustic liquid handler system (Beckman Coulter) (assay 2), normalizing for added DMSO and including DMSO controls. For the TO time point measurement, untreated cells are analyzed at the time of compound addition. Plates are incubated for 120 h, and cell viability is measured using CellTiter-Glo luminescent cell viability reagent (Promega product code G7570). Viability (stated as percent of control) is defined as relative luminescence units RLU of each well divided by the RLU of cells in DMSO controls. IC50 values are determined from viability measurements by non-linear regression using a four parameter model.

[6] = test system: KRAS G12D-dependent Ba/F3 cells; assay: Ba/F3 proliferation assay, KRAS G12D; type: cell-based; conditions: Mus musculus, BaF3, 72 h, AlamarBlue
Protocol: as §10, §11

| SMILES | HLM QH [1] | IC50 (KRAS (G12D)::SOS1) | IC50 (KRAS (G12C)::SOS1) | IC50 [2] | solubility at 24 h ([3]; McIlvaine buffer pH 4.5, read-out: solubility pH 4.5) | solubility at 24 h ([3]; McIlvaine buffer pH 6.8, read-out: solubility pH 6.8) | IC50 [4] | fraction unbound [5] | IC50 (NCI-H358 cells) | IC50 [6] |
| --- | --- | --- | --- | --- | --- | --- | --- | --- | --- | --- |
| Cc1cc(-c2onc3c2CCC[C@@]32CCCc3sc(N)c(C#N)c32)nc(N2CCCNC[C@@H]2C)n1 [I-35] | 32% | 21 nM | 32 nM | 289 nM | 3 µg/mL (≈ 6.13 µM) | < 1 µg/mL |  |  |  |  |
| C[C@H](Oc1cc(N2CCN3CCC[C@]3(C)C2)nc(-c2noc3c2CCC[C@@]32CCCc3sc(N)c(C#N)c32)n1)[C@@H]1CCCN1C [II-52] | <24% |  |  | 403 nM |  |  | 401 nM | 0.48 | 1720 nM | 72 nM |
| C[C@H](Oc1cc(-n2ccnn2)nc(-c2noc3c2CCC[C@@]32CCCc3sc(N)c(C#N)c32)n1)[C@@H]1CCCN1C [II-108] | 59% |  |  | 15 nM |  |  | 8 nM | 0.42 | 134 nM | 54 nM |
| C[C@H]1CN(C)CCCN1c1nc(-c2noc3c2CCC[C@@]32CCCc3sc(N)c(C#N)c32)cc(N2CCN(C)C3(CC3)C2)n1 [II-172] | 51% | 36 nM | 888 nM | 830 nM |  |  |  |  |  |  |
